Test results from US20260265305A1, “POLYPEPTIDE DERIVATIVE FOR ORAL DELIVERY” (Hangzhou Sciwind Biosciences Co., Ltd., priority 2023, published 2026).
One block for each molecule: values may come before it. Numbered stars: 1 amine (or outer) side, 2 acyl side, 3 side chain; on linkers, the order of the positions; unused ones are H or OH. Bridge positions count the residues as written; N and C are the ends. Square brackets hold non-standard residues; d marks the D form. Ends that are not written are not given here. Peptide text beside a SMILES is read from it. * marks the point of attachment. C20 diacid = O=C(O)CCCCCCCCCCCCCCCCCCC(=O)*; C18 diacid = O=C(O)CCCCCCCCCCCCCCCCC(=O)*; βAsp = O=C(O)[C@H](CC(=O)[*:2])N[*:1]; Hyp = O=C(O)[C@@H]1C[C@@H](O)CN1; AEEA = NCCOCCOCC(=O)O

Assays:
[1] = Efficacy assay in SD rats, dose-dependent study, single subcutaneous dose; format: in vivo; details: Table 9
Description: […] Food intake was the amount of food consumed by each of the animals per day.

[2] = Heat accelerated stability assay of polypeptide solutions (40° C., pH about 7.4), reversed phase chromatography; format: physicochemical
Procedure, shortened: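 Polypeptide derivative lyophilisate (1 mg/mL) with sodium dihydrogen phosphate (1.42 mg/mL) in water, pH about 7.4, sterile-filtered, vialed and held at 40° C; sampled on days 7 and 26. After centrifugation, concentration and purity (target/total peak area) by C18 RP-HPLC, TFA/ACN gradient, 280 and 214 nm.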

amylin receptor (hAMY3R) [3] = target: T1, amylin receptor (hAMY3R) (Homo sapiens, UniProt O60896+P30988); experiment: Amylin receptor agonism testing, CRE-luciferase assay in stably transfected CHO-K1/Ga15/AMY3 cells; format: cell-based; details: incubation of 4 hours (N2 and N3 retested); Table 3 lower part; read-out: EC50, activity against the amylin receptor in cells
T1 construct: host or cells: CHO-K1/Ga15/AMY3 cells, further stably transfected with a CRE-luciferase plasmid
T1 sequence (P30988 25-474): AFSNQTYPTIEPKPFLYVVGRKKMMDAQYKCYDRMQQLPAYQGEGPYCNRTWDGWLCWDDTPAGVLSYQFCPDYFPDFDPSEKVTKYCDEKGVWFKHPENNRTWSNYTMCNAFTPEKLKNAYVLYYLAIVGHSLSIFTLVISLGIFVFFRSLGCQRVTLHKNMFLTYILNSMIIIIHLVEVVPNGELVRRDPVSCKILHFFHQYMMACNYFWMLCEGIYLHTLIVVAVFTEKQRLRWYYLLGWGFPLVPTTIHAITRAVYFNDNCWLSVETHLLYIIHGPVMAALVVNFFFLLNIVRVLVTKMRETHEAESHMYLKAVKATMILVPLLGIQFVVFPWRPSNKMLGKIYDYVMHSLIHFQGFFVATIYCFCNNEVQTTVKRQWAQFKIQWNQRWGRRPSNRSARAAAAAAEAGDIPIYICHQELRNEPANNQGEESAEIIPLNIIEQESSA
T1 sequence (O60896 24-148): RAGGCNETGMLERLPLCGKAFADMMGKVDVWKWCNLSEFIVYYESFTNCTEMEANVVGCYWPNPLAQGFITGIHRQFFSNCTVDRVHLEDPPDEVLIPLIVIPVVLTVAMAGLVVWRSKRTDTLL

[4] = dog, in vivo, 7 mg
Description: Whole blood of the animals was collected pre dose (−10 min) and 2 h, 4 h, and 8 h post dose on Day 1, pre dose (−10 min) and 2 h and 4 h post dose on Day 2-Day 4, and pre dose (−10 min) and 2 h, 4 h, 8 h, 24 h, 48 h, and 72 h post dose on Day 5, and processed into plasma using heparin sodium as an anticoagulant. […] Experimental data was plotted using GraphPad Prism9.3.1.

amylin receptor (hAMY3R) [5] = target: T2, amylin receptor (hAMY3R) (human (printed as hAMY3R), UniProt P30988 25-474; O60896 24-148); experiment: cell-based or functional assay
T2 sequence (looked up) 1: T1 sequence (P30988 25-474)
T2 sequence (looked up) 2: T1 sequence (O60896 24-148)

EC50 (amylin receptor (hAMY3R) [3]): 0.001 nM
Molecule: CC[C@H](C)[C@H](NC(=O)[C@@H]1CCCN1C(=O)[C@H](CCCCN)NC(=O)[C@H](CC(C)C)NC(=O)[C@H](CC(N)=O)NC(=O)[C@H](CC(N)=O)NC(=O)[C@H](CO)NC(=O)[C@H](CO)NC(=O)[C@H](Cc1c[nH]cn1)NC(=O)[C@H](CCCNC(=N)N)NC(=O)[C@H](CC(C)C)NC(=O)[C@H](Cc1ccccc1)NC(=O)[C@H](CC(=O)O)NC(=O)[C@H](C)NC(=O)[C@H](CC(C)C)NC(=O)[C@H](CCCNC(=N)N)NC(=O)[C@H](CCC(N)=O)NC(=O)[C@@H](NC(=O)[C@H](C)NC(=O)[C@@H]1CSSC[C@H](NC(=O)[C@H](CCCCN)NC(=O)COCCOCCNC(=O)COCCOCCNC(=O)C[C@H](NC(=O)CCCCCCCCCCCCCCCCC(=O)O)C(=O)O)C(=O)N[C@@H](CC(N)=O)C(=O)N[C@@H]([C@@H](C)O)C(=O)N[C@@H](C)C(=O)N[C@@H]([C@@H](C)O)C(=O)N1)[C@@H](C)O)C(=O)N[C@@H](CC(C)C)C(=O)N1CCC[C@H]1C(=O)N1CCC[C@H]1C(=O)N[C@H](C(=O)N[C@@H](CC(N)=O)C(=O)N[C@H](C(=O)NCC(=O)N[C@@H](CO)C(=O)N[C@@H](CC(N)=O)C(=O)N[C@H](C(=O)N1C[C@H](O)C[C@H]1C(N)=O)[C@@H](C)O)C(C)C)[C@@H](C)O [N3] ({C18 diacid-βAsp-AEEA-AEEA}-KCNTATCATQRLADFLRHSSNNLKPILPPTNVGSNT[Hyp]-NH2; disulfide 2-7)
oral bioavailability [4]: significantly improving the bioavailability

EC50, CRE-luciferase reporter in amylin receptor CHO cells, 24 h (amylin receptor (hAMY3R) [5]): 0.033 nM
Molecule: ASQLSTAVLGRLSQELHRLQDYPRTDVGSGSP-NH2 [M5]

The next lines start with the molecule.

Molecule: CC[C@H](C)[C@H](NC(=O)[C@@H]1CCCN1C(=O)CNC(=O)[C@H](Cc1ccccc1)NC(=O)[C@H](CC(N)=O)NC(=O)[C@H](CC(N)=O)NC(=O)[C@H](CO)NC(=O)[C@H](CO)NC(=O)[C@H](Cc1c[nH]cn1)NC(=O)[C@H](CCCNC(=N)N)NC(=O)[C@H](CC(C)C)NC(=O)[C@H](Cc1ccccc1)NC(=O)[C@H](CCC(=O)O)NC(=O)[C@H](C)NC(=O)[C@H](CC(C)C)NC(=O)[C@H](CCCNC(=N)N)NC(=O)[C@H](CCC(N)=O)NC(=O)[C@@H](NC(=O)[C@H](C)NC(=O)[C@@H]1CSSC[C@H](NC(=O)[C@H](CCCCN)NC(=O)CC[C@H](NC(=O)CCCCCCCCCCCCCCCCCCC(=O)O)C(=O)O)C(=O)N[C@@H](CC(N)=O)C(=O)N[C@@H]([C@@H](C)O)C(=O)N[C@@H](C)C(=O)N[C@@H]([C@@H](C)O)C(=O)N1)[C@@H](C)O)C(=O)N[C@@H](CC(C)C)C(=O)N1CCC[C@H]1C(=O)N1CCC[C@H]1C(=O)N[C@H](C(=O)N[C@@H](CC(N)=O)C(=O)N[C@H](C(=O)NCC(=O)N[C@@H](CO)C(=O)N[C@@H](CC(N)=O)C(=O)N[C@H](C(=O)N1CCC[C@H]1C(N)=O)[C@@H](C)O)C(C)C)[C@@H](C)O [D1, Cagrilintide]
24 h food intake ([1]; 30 nmol/kg single s.c. dose): 5.250 g
24 h weight change ([1]; 30 nmol/kg single s.c. dose): −6.416%
24 h food intake ([1]; 100 nmol/kg single s.c. dose): 2.100 g
24 h weight change ([1]; 100 nmol/kg single s.c. dose): −9.103%
purity decrease ([2]; Day 7 of the accelerated testing): 12.73%
appearance (clarity) of the solution ([2]; Day 26 of the heat accelerated assay): foreign matters were readily observable
Purity change on 7 d ([2]; reversed phase chromatography 214 nm, 40° C., Day 7, purity on 7 d − purity on 0 d): −12.73%

Molecule: CC[C@H](C)[C@H](NC(=O)[C@@H]1CCCN1C(=O)[C@H](CCCCN)NC(=O)[C@H](CC(C)C)NC(=O)[C@H](CC(N)=O)NC(=O)[C@H](CC(N)=O)NC(=O)[C@H](CO)NC(=O)[C@H](CO)NC(=O)[C@H](Cc1c[nH]cn1)NC(=O)[C@H](CCCNC(=N)N)NC(=O)[C@H](CC(C)C)NC(=O)[C@H](Cc1ccccc1)NC(=O)[C@H](CC(=O)O)NC(=O)[C@H](C)NC(=O)[C@H](CC(C)C)NC(=O)[C@H](CCCNC(=N)N)NC(=O)[C@H](CCC(N)=O)NC(=O)[C@@H](NC(=O)[C@H](C)NC(=O)[C@@H]1CSSC[C@H](NC(=O)[C@H](CCCCN)NC(=O)COCCOCCNC(=O)COCCOCCNC(=O)C[C@H](NC(=O)CCCCCCCCCCCCCCCCCCC(=O)O)C(=O)O)C(=O)N[C@@H](CC(N)=O)C(=O)N[C@@H]([C@@H](C)O)C(=O)N[C@@H](C)C(=O)N[C@@H]([C@@H](C)O)C(=O)N1)[C@@H](C)O)C(=O)N[C@@H](CC(C)C)C(=O)N1CCC[C@H]1C(=O)N1CCC[C@H]1C(=O)N[C@H](C(=O)N[C@@H](CC(N)=O)C(=O)N[C@H](C(=O)NCC(=O)N[C@@H](CO)C(=O)N[C@@H](CC(N)=O)C(=O)N[C@H](C(=O)N1C[C@H](O)C[C@H]1C(N)=O)[C@@H](C)O)C(C)C)[C@@H](C)O [N2] ({C20 diacid-βAsp-AEEA-AEEA}-KCNTATCATQRLADFLRHSSNNLKPILPPTNVGSNT[Hyp]-NH2; disulfide 2-7 (inferred))
oral bioavailability [4]: extraordinarily high oral bioavailability
